# PubChem BioAssay AID588663 (The Scripps Research Institute Molecular Screening Center, 2011)
# Active and inactive are the calls of the source.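 How the source made its calls: active means phosphorylated p38 level shifted at least 30% either way versus solvent-only control; inactive means shift under 30% either way.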
# Test system: SW620 cells, phospho-p38 western blot, 24 h
# Assay: altered phosphorylated p38 MAPK amounts – SW620 cells, chemiluminescent western blot, powder samples, counter-screen for KLF5 inhibitor project, late-stage follow-up (AID 588663)
# Conditions: at 10 µM; hits give high values
row,Compound,inhibition
1,CN(C(=O)COC(=O)/C=C/c1cccc([N+](=O)[O-])c1)C1CCS(=O)(=O)C1 (stereo not drawn),9.32% (inactive)
2,CN(C(=O)CNC(=O)/C=C/c1cccc(Cl)c1)C1CCS(=O)(=O)CC1,6.58% (inactive)
3,CN(C(=O)CNC(=O)/C=C/c1cccc(Cl)c1)C1CCS(=O)(=O)C1 (stereo not drawn),15.9% (inactive)
